Source: patent US6361981B1, “Production of ammonium acrylate” (Ciba Specialty Chemicals Water Treatments Limited, priority 1995, dated 2002)

Tests used:
[1] = system: nitrilase, a preferred enzyme on which initial experiments were conducted (particularly preferred enzyme: Rhodococcus rhodochrous NCIMB 40757); experiment: Km, Ki of preferred nitrilase in whole cell form (Michaelis-Menten kinetics); format: biochemical
Procedure: The enzyme must have Km for (meth) acrylonitrile, that is whichever of acrylonitrile and (meth) acrylonitrile is being converted, below 500 μm and Ki for ammonium acrylate or ammonium (meth) acrylate, whichever is being produced, above 100,000 μM. In this specification Km and Ki are measured under conditions in which the enzyme obeys Michaelis-Menten kinetics, in particular at pH 7. A preferred measurement technique uses enzyme in whole cell form in 50 mM sodium phosphate buffer at pH 7 and 30° C. and using concentrations of acrylonitrile from 0.01 to 0.5 mM (for Km) and using 1.2 M ammonium acrylate and 0.079 to 0.554 mM acrylonitrile (for Ki).

[2] = system: nitrilase enzyme discussed in Biotech and Appl Biochem 11, 581 to 601 (1989); settings: literature value; read-out: Km for acrylonitrile; cited from earlier work
[3] = system: R rhodochrous K22 nitrilase; settings: literature value; read-out: Km for acrylonitrile; cited from earlier work

SMILES	Km ([1]; whole cell form, preferred technique: 50 mM sodium phosphate buffer, pH 7, 30° C., acrylonitrile 0.01 to 0.5 mM) [µM]	Km [2] [µM]	Km [3] [µM]	ratio Ki/Km ([1]; Ki for ammonium acrylate / Km for acrylonitrile)
C=CC#N [acrylonitrile]	30.6	17000	1140	–
C=CC(=O)O [ammonium acrylate]	–	–	–	greater than 10,000
